According to PubChem BioAssay (NCI):
“And” between values parts separate entries of the source, which are not always exact repeats. Equal values may be shown once.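 Values below derive from 48-hour exposures of cells grown in 96-well plates, with endpoints linearly interpolated between the two concentrations bracketing the appropriate inhibition level. Here, GI50 denotes the concentration required for 50% inhibition of growth. TGI: concentration producing complete growth inhibition.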

Columns and labels:
Assay in all cases: inhibition of tumour cell growth, NCI panel, 48 h
SK-OV-3 ovarian = tested on: SK-OV-3 ovarian
SR leukemia = tested on: SR leukemia
NCI-H460 lung = tested on: NCI-H460 lung
786-0 renal = tested on: 786-0 renal
MOLT-4 leukemia = tested on: MOLT-4 leukemia
U251 CNS = tested on: U251 CNS
NCI-H522 lung = tested on: NCI-H522 lung
HT29 colon = tested on: HT29 colon
HS 578T breast = tested on: HS 578T breast
NCI-H23 lung = tested on: NCI-H23 lung

| Compound | GI50 (SK-OV-3 ovarian) | TGI (SK-OV-3 ovarian) | GI50 (SR leukemia) | TGI (SR leukemia) | GI50 (NCI-H460 lung) | TGI (NCI-H460 lung) | GI50 (786-0 renal) | TGI (786-0 renal) | GI50 (MOLT-4 leukemia) | TGI (MOLT-4 leukemia) | GI50 (U251 CNS) | TGI (U251 CNS) | GI50 (NCI-H522 lung) | TGI (NCI-H522 lung) | GI50 (HT29 colon) | TGI (HT29 colon) | GI50 (HS 578T breast) | TGI (HS 578T breast) | GI50 (NCI-H23 lung) | TGI (NCI-H23 lung) |
| --- | --- | --- | --- | --- | --- | --- | --- | --- | --- | --- | --- | --- | --- | --- | --- | --- | --- | --- | --- | --- |
| Cc1cn2c(/C=C3\C(=O)N(C)c4ccc(O)cc43)c(C)nc2s1 | 7.52 µM | 43.2 µM | 1.98 µM | 9.91 µM | 3.54 µM | 21.3 µM | 6.41 µM | > 100 µM | 4.71 µM | 34.7 µM | 5.64 µM | > 100 µM | 3.02 µM | 13.7 µM | 3.12 µM | 18.4 µM | 5.64 µM | 40.8 µM | 11.9 µM | > 100 µM |
| COc1cc2c(c(OC)n1)[C@]1(O)[C@H](O)[C@H](CN(C)C)[C@@H](c3ccccc3)[C@]1(c1ccc(C#N)cc1)O2 | 0.0481 µM and 0.0284 µM | 7.95 µM and 2.1 µM | 0.0246 µM and < 0.0114 µM | 4.48 µM | < 0.01 µM | 3.48 µM and 6.88 µM | 0.0443 µM and 0.0313 µM | 7.37 µM and 4.06 µM | < 0.01 µM | – | 0.02 µM and < 0.0111 µM | 2.39 µM and 7.95 µM | 0.0257 µM and 0.0212 µM | 1.15 µM and 2.24 µM | < 0.01 µM | 4.25 µM and 4.04 µM | 0.0402 µM and 0.0367 µM | 1.97 µM and 1.16 µM | 0.0182 µM and 0.0111 µM | 1.76 µM and 1.03 µM |
| COc1ccc2c(c1)C(C)Cc1c(ncnc1-n1c(C)nc3ccccc31)N2C (stereo unspecified) | 3.53 µM | 18.5 µM | 0.345 µM | 5.54 µM | 3.85 µM | 14.4 µM | 5.83 µM | 29.2 µM | 2.39 µM | 12.5 µM | 4.51 µM | 17.7 µM | 1.96 µM | 5.38 µM | 2.81 µM | 8.94 µM | 4.12 µM | 25.3 µM | 3.08 µM | 18.5 µM |
| O=[N+]([O-])c1ccc2c(c1)C(c1ccccc1Cl)=Nc1cn[nH]c1N2 | 12.5 µM | > 25 µM | 15.2 µM | > 25 µM | 16.1 µM | > 25 µM | 11.8 µM | > 25 µM | 10.5 µM | > 25 µM | 9.91 µM | > 25 µM | 15.5 µM | > 25 µM | 19.2 µM | > 25 µM | 7.76 µM | > 25 µM | > 25 µM | > 25 µM |
| CC(=O)O[C@H](C[C@H](C(C)C)N(C)C(=O)[C@@H](NC(=O)[C@H]1CCCCN1C)C(C)C)c1nc(C(=O)N[C@@H](Cc2ccccc2)C[C@H](C)C(=O)O)c(CCOCc2ccccc2)s1 | < 0.001 µM | > 10 µM | < 0.001 µM | > 10 µM | < 0.001 µM | > 10 µM | < 0.001 µM | > 10 µM | < 0.001 µM | > 10 µM | < 0.001 µM | – | < 0.001 µM | < 0.001 µM | < 0.001 µM | > 10 µM | < 0.001 µM | > 10 µM | < 0.001 µM | > 10 µM |
| Cc1c(C2=C(Br)C(=O)N(C)C2=O)c(=O)n(C)c(=O)n1C | – | > 100 µM | – | 75.9 µM | – | > 100 µM | – | 32.1 µM | – | 55.1 µM | – | > 100 µM | – | 29.5 µM | – | 42.2 µM | – | > 100 µM | – | 42.9 µM |
| COc1cc(C2=C(c3cn(C)c4ccccc34)COC2=O)cc(OC)c1OC | 0.269 µM | – | 0.0219 µM | > 100 µM | 0.0532 µM | 1.68 µM | 0.317 µM | > 32.8 µM | 0.055 µM | > 28.2 µM | 0.0731 µM | > 100 µM | 0.0485 µM | 0.716 µM | 0.0383 µM | – | 0.159 µM | 3.58 µM | 0.233 µM | 3.04 µM |
| CCOC(=O)CNC(=O)c1ccccc1Nc1ccnc(C(F)(F)F)c1 | > 59.5 µM | > 100 µM | 19 µM | 57.8 µM | 29.8 µM | > 68.1 µM | 52.6 µM | > 90 µM | 17.7 µM | 54.3 µM | 34.3 µM | > 62.1 µM | 27.8 µM | > 70.5 µM | 44.4 µM | > 100 µM | 45.5 µM | > 100 µM | 31.5 µM | > 71.8 µM |
| CCC(C)(C)c1ccc(OCCCCCCN2CCNCC2)cc1 | 11.3 µM | 25.7 µM | 1.25 µM | 3.71 µM | 1.94 µM | 3.87 µM | 1.73 µM | 3.23 µM | 2.03 µM | 5.11 µM | 1.68 µM | 3.45 µM | 2.23 µM | 5.67 µM | 1.86 µM | 4.72 µM | 1.97 µM | 5.17 µM | 2.85 µM | 8.36 µM |
| O=c1[nH]cnc2cccc(Cl)c12 | – | > 100 µM | – | > 100 µM | – | > 100 µM | – | > 100 µM | – | > 100 µM | – | > 100 µM | – | > 100 µM | – | > 100 µM | – | > 100 µM | – | > 100 µM |
| CC(C)S(=O)(=O)c1ccccc1Nc1nc(Nc2cccc(NC(=O)CN)c2)ncc1Cl | 1.11 µM | 8.57 µM | 0.0101 µM | 0.423 µM | 0.0306 µM | 1.64 µM | 0.235 µM | 2.57 µM | 0.231 µM | 2.14 µM | 0.179 µM | 2.86 µM | 1.33 µM | 4.08 µM | 0.183 µM | 2.83 µM | 0.161 µM | 1.11 µM | 0.208 µM | 1.03 µM |
